melting point: 241 to 243 °C
Compound: NC(=O)CCN1C(=O)[C@@H](CC(=O)NCCc2ccc(Br)cc2)S[C@H]1c1ccc(C#Cc2ccccc2)s1 (relative stereo) [Example 13, 3-[(2S*,5R*)-5-{[2-(4-Bromo-phenyl)-ethylcarbamoyl]-methyl}-4-oxo-2-(5-phenylethynyl-thiophen-2-yl)-thiazolidin-3-yl]-propionamide]

From patent publication US6426357B1, “Antagonists of follicle stimulating hormone activity” (Affymax, Inc., priority 1999, dated 2002)
